Measurements as given in US20070031511A1, “Method of treatment” (priority 2003, published 2007).
Like-named read-outs stand apart in the source and are kept apart here. One block for each compound: values may come before it.

What was measured:
[1] = Quenching of gastrin tryptophan fluorescence by bismuth ions; assay type: binding; conditions: pH 4.0
Description: Values from the indicated number of independent experiments were combined to obtain the mean values (±S.E.) presented above.

[2] = biological target: T1, CCK-2 receptor (Homo sapiens, UniProt P32239); experiment: [125I]-BH-CCK8 displacement, CCK-2 receptor on Jurkat cells; assay type: binding
T1 sequence (P32239 1-447): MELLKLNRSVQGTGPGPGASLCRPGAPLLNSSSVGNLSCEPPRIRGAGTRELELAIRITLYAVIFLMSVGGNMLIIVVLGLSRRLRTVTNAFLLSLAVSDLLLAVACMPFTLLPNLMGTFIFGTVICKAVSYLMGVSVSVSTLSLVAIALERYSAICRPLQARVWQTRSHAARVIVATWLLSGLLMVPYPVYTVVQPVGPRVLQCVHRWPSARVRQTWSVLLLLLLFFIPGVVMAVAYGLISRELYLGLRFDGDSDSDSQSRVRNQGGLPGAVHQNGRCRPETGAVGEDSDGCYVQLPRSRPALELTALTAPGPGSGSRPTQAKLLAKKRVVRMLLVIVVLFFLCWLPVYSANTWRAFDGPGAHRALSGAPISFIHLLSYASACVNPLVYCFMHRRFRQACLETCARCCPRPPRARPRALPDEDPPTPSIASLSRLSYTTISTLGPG
Description: Non-specific binding was evaluated with […] of unlabelled CCK8. Incubation was stopped by adding 2 ml of ice-cold PBS containing 2% bovine serum albumin. After centrifugation, supernatants were removed and the radioactivity bound to the cell membranes was measured in a γ-counter (LKB, Wallac, Finland).

[3] = system: Ggly receptor; experiment: [125I]-Ggly binding to the Ggly receptor on IMGE-5 cells; set-up: species or system mice
Description: [^125I]-Ggly binding assays were carried out by previously described methods (Yang et al, 2001). Briefly, 5×10^5 IMGE-5 cells/well were seeded in 6-well plates and grown at 33° C. for 24 hours. The cells were then serum starved and shifted to 39° C. for 24 h. […] Cells were then washed three times in ice-cold PBS and lysed with 1 M NaOH, and the amount of radioactivity bound was measured in a γ-counter.

[4] = biological target: T1, CCK-2 receptor; experiment: Gamide-stimulated proliferation in CHO cells stably transfected with the CCK-2 receptor; assay type: cell-based; set-up: expressed in transfected cells; host or cells: CHO
[5] = system: IMGE-5 cells; experiment: IMGE-5 cell proliferation, [3H]-thymidine incorporation; assay type: cell-based, mice; conditions: IMGE cells, thymidine uptake; best fit at saturating concentration
Description: In some cases cell proliferation was also measured by [^3H]-thymidine incorporation as described previously (Oiry et al., 2000). Briefly, IMGE-5 cells (10^5/well) were seeded in 24-well plates in medium containing 10% FBS and 1 unit/ml γ-interferon. On the next day cells were serum starved and shifted to 39° C. for 24 hr. Cells were then incubated with or without various compounds at 39° C. for 17 h in medium supplemented with 0.2% bovine serum albumin only. Cells were incubated with 0.5 μCi of [^3H] thymidine in the same medium at 39° C. for 4 h, washed twice with PBS (2.7 mM KCl, 142 mM NaCl, 1.5 mM KH2PO4, 10 mM Na2HPO4, pH 6.95) containing 0.2% bovine serum albumin and incubated at 4° C. for 30 min with 5% trichloroacetic acid. Finally cells were washed with 95% ethanol to remove unincorporated [^3H] thymidine, and lysed with 1 M NaOH. Lysates were transferred to counting vials and neutralized with 1M HCl. The radioactivity of each lysate was counted in a β-counter after the addition of 10 ml of Pico-fluor 40 solution (Packard, Meriden, Conn.).
In some experiments IMGE-5 cells were seeded in a 96-well plate at a density of 3-5×10^3 cells/well in.DMEM containing 10% FBS, and cultured at 33° C.. On the following day, the cells were serum-starved at 33° C. for 24 h. […] The cells were cultured at 39° C. for 24 h, and then harvested using a NUNC cell harvester. The amount of ^3H-thymidine incorporated through DNA synthesis was detected with a β-counter (Packard, Meriden, Conn.). […]

[6] = system: IMGE-5 gastric epithelial cells; experiment: Ggly-stimulated inositol phosphate production in IMGE-5 cells; assay type: cell-based, mice
Description: Intracellular inositol phosphate production was determined as described previously (Qian et al, 1993). IMGE-5 cells (10^5 cells/ml) were plated in 24-multiwell culture plates in DMEM supplemented with 10% FBS, 200 IU/ml penicillin and 200 μg/ml streptomycin. 24 h later, cells were incubated with DMEM supplemented with antibiotics and Myo-[2-^3H]inositol (2.5 μCi/well) and shifted to 39° C. for 16 h. Cells were then washed with pre-warmed DMEM and incubated (20-30 minutes, 37° C.) with DMEM supplemented with 20 mM LiCl. Loaded cells were then washed in 1 ml of IP buffer (135 mM NaCl, 20 mM N-(2-hydroxyethyl)piperazine-N′-(2-ethanesulfonic acid), 2 mM CaCl2, 1.2 mM MgSO4, 1 mM ethylene glycol-bis(2-aminoethylether)-N,N,N′,N′-tetraacetic acid, 10 mM LiCl, and 0.5% bovine serum albumin, pH 7.45) and incubated with or without agonist in a final volume of 0.5 ml of IP buffer. After 1-h incubation at 37° C., the reaction was stopped by removing the incubation medium and adding 1 ml of a mixture of ethanol/HCl (2000:1; v/v). One ml of each aliquot was applied to a column containing 1.6 ml of a 1:2 (v/v) Dowex AG-1-X8 anion exchange resin in distilled water. […] The radioactivity of each eluate was counted after addition of Complete phase combining system solution (Amersham, UK). […]
Ggly-stimulated inositol phosphate production was measured in HT29 human colorectal carcinoma cells.

[7] = read-out: Kd for binding of ferric ions to Ggly; pH 4.0; taken from Baldwin et al. (2001); cited from earlier work

- Kd ([1]; single experiment, two independent sites with identical affinities, read-out: Kd for bismuth ions, line of best fit of FIG. 11): 8.6 ± 1.2 µM
- Kd ([1]; two identical independent binding sites, mean ± S.E. of 5 experiments, read-out: Bismuth Kd): 8.2 ± 0.8 µM
- % Maximum Binding (Jurkat) ([2]; binding in the absence of competitor, fitted, mean ± S.E.): 100.0 ± 3.1%
- % Maximum Binding (Jurkat) ([2]; presence and absence of 1 μM DFO): 99.0 ± 0.4%
- Ordinate intercept, FIG. 24B ([2]; single experiment, presence and absence of 1 μM DFO): 99.6%
Compound: CSCC[C@H](NC(=O)[C@H](Cc1c[nH]c2ccccc12)NC(=O)CNC(=O)[C@H](Cc1ccc(O)cc1)NC(=O)[C@H](C)NC(=O)[C@H](CCC(=O)O)NC(=O)[C@H](CCC(=O)O)NC(=O)[C@H](CCC(=O)O)NC(=O)[C@H](CCC(=O)O)NC(=O)[C@H](CCC(=O)O)NC(=O)[C@H](CC(C)C)NC(=O)[C@H](Cc1c[nH]c2ccccc12)NC(=O)[C@@H]1CCCN1C(=O)CNC(=O)[C@@H]1CCC(=O)N1)C(=O)N[C@@H](CC(=O)O)C(=O)N[C@@H](Cc1ccccc1)C(N)=O [Gamide]

- Effect on Gamide-stimulated proliferation [4]: did not significantly inhibit
Compound: [Bi+3] [bismuth ions]
- Inhibition of [125I]-Ggly binding ([3]; 2 moles Bi3+/mole Ggly): 50%
- Inhibition of [125I]-Ggly binding ([3]; 8 or 32 moles Bi3+/mole Ggly): complete inhibition

Compound: Ggly: glycine-extended gastrin17, 18 amino acid non-amidated gastrin, SEQ ID NO:4, residues 55-72 of progastrin (XGPWLEEEEEAYGWMDFG; (1)..(1) pyroglutamate; listed as Homo sapiens)
- S (%), maximum % stimulation [5]: 37.3%
- Ggly stimulation of inositol phosphate production compared to the control [6]: 110%
- Kd [7]: 600 nM
